Assays:
[1] = tested on: senescent cells; assay: Efferocytosis of apoptotic Jurkat cells by macrophages after co-culture with senescent cells; format: cell-based, mouse; conditions: pretreatment, 4 days, Fig. S7
Procedure: Apoptotic corpse generation. Jurkat cells were cultured in a T25 flask and apoptotic corpses were inducted by exposure to 5 μM camptothecin (Tsbiochem, CAT. # t2764) for 4 hours. Apoptosis induction was confirmed by apoptoic kit (Beyotime Biotechnology, Cat. # C1062M) through flow cytometry.
Senescence induction. B16F10 Cells were plated (96-well plate: 2000 cells/well) and rested over night before exposure to 10 μM cisplatin (APExBIO, Cat. # A8321). Cisplatin exposed cells were subsequently cultured for 4 or 7 days (without media change) and senescent cells were evaluated by β-Galactosidase staining using a SA-β-Gal staining Kit (Solarbio, Cat. # G1580-100T) according to the manufacturer’s instructions. Senescent cells were identified as blue stained cells under light microscopy.
Efferocytosis after co-culture. Senescent cells were plated in 96-well plates (2000 cells/well) and inducted as described before. QPCTL inhibitors were added every other day to the cells. For co-culture conditions BMDMs were added to the senescent cells. Senescent cells and macrophages were co-cultured for 16 hours. […] Following removal of unbound corpses by washing three times with PBS, macrophages were marked with APC-labeled anti-F4/80, and the co-culture was analyzed by flow cytometry. Efferocytosis was calculated as the percentage of CFSE^+F4/80^+ cells among F4/80^+ cells.

[2] = tested on: CD47; assay: Overall cell surface CD47 (hCD47-B6H12 binding) in HEK293T and Raji cells; format: cell-based, human; conditions: 100 nM, 48 h
Procedure: (§1) Binding to cell surface CD47 was assessed by staining cells with fluorochrome-labeled antibodies clone CC2C6 (BioLegend, Cat. # 323102) and B6H12 (Abcam, Cat. # ab134485) to human CD47 at a dilution of 1:100 in PBS containing 1% FBS (FACS buffer) for 30 min on ice, while protected from light. SIRPα binding to CD47 was assessed by incubating cells with PE labeled recombinant human SIRPα/ CD172α Protein, Fc tag (ACRO Biosystems, Cat. # SIA-HP252) or PE labeled mouse SIRPα Protein, His tag (ACRO Biosystems, Cat. # SIA-MP2H6) for 1 hour on ice, while protected from light.

[3] = tested on: B16F10 cells; assay: In vitro phagocytosis of B16F10 cells by mouse macrophages; format: cell-based
Procedure: Eight-week-old C57BL/6 wild-type mice were obtained from Shanghai Slaccas Laboratory Animal Co., Ltd.. To obtain bone marrow derived macrophage (BMDM), femora and tibiae were flushed with ice-cold PBS, and erythrocytes were lysed with RBC lysis buffer. Then bone marrow cells were cultured in DMEM medium with 10 % FBS and 100 U/ mL penicillin, and 100 μg/ mL streptomycin in the presence of 50 ng/ mL mouse M-CSF (Macrophage-Colony Stimulating Factor) (PeproTech), 0.1 mM Sodium pyruvate (Gibco, Cat. # 11360-70) and 10 mM HEPES (Gibco, Cat. # 15630-080) for 7 days.
Phagocytosis assay were conducted as previously described. Briefly, macrophages were plated 1 x 10^5 cells per well in a 48-well plate in complete DMEM medium, supplemented with M-CSF overnight before the experiment. Cancer cells were stained with 5 μM CFSE at 37 °C for 10 min. Each phagocytotic reaction reported in this work was performed by co-culture of target cells and macrophages for 4 hours at 37 °C. Macrophages were identified with APC-labeled anti-F4/80 (Biolegend, Cat. # 123116), and flow cytometry (BD FACSCanto II, San Jose, CA) was performed. Phagocytosis was calculated as the percentage of CFSE^+F4/80^+ cells (Q2) among CFSE^+ cells (Q2+Q3): phagocytosis (%) = [Q2 / (Q2+ Q3)] x100 %.

[4] = tested on: pGlu-CD47; assay: hCD47-CC2C6 binding to various cancer cells (H929, HCT116, Huh7, SKOV3, SU-DHL-8, T24, H1299, MCF-7); format: cell-based, human; conditions: 500 nM, 48 h
Procedure: as §1

[5] = In vivo toxicity in mice (blood routine, serum biochemistry, HE histology); set-up: species or system mouse
Procedure: Briefly, male mice were implanted subcutaneously with 5 x 10^5 B16F10 cells resuspended in 100 μL of DMEM on Day 0. Anti-PD-1 antibody or mouse IgG2a isotype control was dosed at 80 µg per mouse intraperitoneally starting on day 6 after tumor implantation, followed by a once-a-week regimen. QPCTL inhibitors was intraperitoneally administered at 25 mg/kg once a day since day 6. Tumors were measured every three days, and mice were sacrificed on day 15. Mouse organs and blood were collected for blood routine, blood serum biochemistry examination and histological evaluation.
Blood routine and blood serum biochemistry examination of mice. Whole blood was collected in EDTA anticoagulant tubes for blood routine test and heparin sodium tubes for blood serum biochemistry examination. Tubes were gently inverted several times to thoroughly mix the blood and anticoagulant. The routine blood test was tested by Automatic Hematology Analyzer (TEK8500H4-0502, TECOM SCIENCE, China). Blood serum was obtained by centrifugation at 4℃ at 4000 rpm for 10 minutes. Serum creatinine (CR) was determined by CR kit (PUREBIO, Cat. # CR01), urea nitrogen (BUN) was determined by BUN kit (PUREBIO, Cat. # URE01), alanine aminotransferase (ALT) was determined by ALT kit (PUREBIO, Cat. # ALT01) and […] was determined by AST kit (PUREBIO, Cat. # AST01) according to the manufacturer’s instructions. […]

[6] = tested on: BMDM cells; assay: Cell viability and phagocytosis ability of BMDM; format: cell-based, mouse
[7] = tested on: CD47/SIRPα; assay: Cell surface binding of human or mouse SIRPα protein to tumor cells (Raji, B16F10), flow cytometry; format: cell-based
Procedure: as §1

[8] = tested on: pGlu-CD47; assay: Flow cytometry of pGlu-CD47 (hCD47-CC2C6 binding) in Raji cells; format: cell-based, human; conditions: 100 nM, 48 h
Procedure: as §1

Structure (SMILES): Cn1cncc1C1CCN(c2c(C#N)cccc2-c2ccc(F)nc2)CC1 [QP5038]
- inhibitory effect of senescent cells on macrophage-mediated phagocytosis of apoptotic cells [1]: could block the inhibitory effect
- overall cell surface levels of CD47 [2]: did not alter
- phagocytosis of B16F10 cells ([3]; 10 μM inhibitor 48 h, in combination with TA99, mouse macrophages): significantly boosted
- flow cytometry quadrant Q1 ([3]; 48 h, 10 µM): 34.7
- flow cytometry quadrant Q2 (CFSE+F4/80+ cells) ([3]; 48 h, 10 µM): 5.39
- flow cytometry quadrant Q3 ([3]; 48 h, 10 µM): 59.0
- flow cytometry quadrant Q4 ([3]; 48 h, 10 µM): 0.89
- efficiency on phagocytosis compared with SEN177 and PQ912 ([3]; B16F10 and Raji cells, 10 μM 48 h, Fig. 1h–k, Fig. S6): much better than that of SEN177 and PQ912
- CD47 pyroglutamation in various types of cancer cells [4]: significantly attenuated
- organ damage (HE staining) ([5]; C57B/L6 mice, 25 mg/kg daily for 15 days, Fig. S10): would not cause
- abnormal blood composition ([5]; mice, 25 mg/kg daily, Fig. S11): would not cause
- cell viability of macrophages ([6]; Fig. S8a): did not attenuate
- phagocytotic ability of macrophages ([6]; apoptotic Jurkat cells, Fig. S8b): did not attenuate
- binding of human or mouse SIRPα protein to cell surface [7]: significantly reduced
- inhibitory effect on CD47 pyroglutamation compared to SEN177 and PQ912 [8]: superior inhibitory effects

From publication PMC10721786, “Development of a potent benzonitrile-based inhibitor of glutaminyl-peptide cyclotransferase-like protein (QPCTL) with antitumor efficacy” (Signal Transduction and Targeted Therapy, 2023)
